In US8426420B2, “Heterocyclic pyrazole-carboxamidesas P2Y12 antagonists” (Sanofi, priority 2007, dated 2013):

What follows are compounds tested on human platelet rich plasma (assay: Inhibition of human platelet aggregation, 96-well assay). Conditions: Homo sapiens, Platelet, 20 min.
Type: cell-based
Method: Inhibition of Human Platelet Aggregation
Alternatively to a binding assay which measures a compound's ability to bind to the P2Y12 receptor, the effect on cellular function was also determined. This ability of the compound was evaluated in two platelet aggregation assays: in 96-well plates and with the “Born”-method using single cuvettes.
Whole blood was collected from healthy volunteers using 20 ml syringes containing 2 ml of ACD-A Aqua-Citrat-Dextrose-A, Fresenius). The anticoagulated whole blood was transferred into 15 ml polypropylene conical tubes (10 ml per tube). The tubes were centrifuged for 15 minutes at 150×g at RT without using the centrifuge brake. This procedure leads to a pellet of cellular components and a supernatant of platelet rich plasma (PRP). The PRP layer was collected from each tube and pooled for each donor. To avoid carry over of cellular components following centrifugation, approximately 5 ml of PRP was left in the tube. The platelet concentration was determined using a Coulter Counter.
The 15 ml tubes containing the pellet of cellular components were centrifuged again for 10 minutes at 1940×g. This pelleted out most particulate blood constituents remaining, leaving a layer of Platelet Poor Plasma (PPP). The PPP was collected for each donor. The PRP layer, previously set aside, was diluted with PPP to a final concentration of approximately 3×E8 platelets/ml with the PPP.
The human platelet aggregation assay is performed in 96-well plates using a microtiter plate reader (SpectraMax Plus 384 with SoftMax Pro software from Molecular Devices). In the plate 15 μl of test compound at 10× final concentration in NaCl is mixed with 120 μl fresh PRP and incubated for 5 minutes. Following that incubation period, 15 μl of 40 μM ADP is added to the reaction mix. This addition of ADP is sufficient to induce aggregation in the absence of an inhibitor. The plates are then transferred to the microplate reader and aggregation is measured over 20 minutes. The instrument settings include:
Absorbance at 650 nm, run time 20 minutes with readings in 1-minute intervals and 50 seconds shaking between readings all performed at 37° C.

**Q.** Which IC50 does the source give for `CCOC(=O)N1CCN(C(=O)[C@H](CCC(=O)O)NC(=O)c2cc(OCC(=O)N3CCC[C@H]3c3nc(C4CC4)no3)n(-c3ccccc3)n2)CC1` [Example 180, 4-{(S)-4-Carboxy-2-[(5-{2-[(S)-2-(3-cyclopropyl-[1,2,4]oxadiazol-5-yl)-pyrrolidin-1-yl]-2-oxo-ethoxy}-1-phenyl-1H-pyrazole-3-carbonyl)-amino]-butyryl}-piperazine-1-carboxylic acid ethyl ester] here?
**A.** 0.45 µM

**Q.** With `CCOC(=O)N1CCN(C(=O)[C@H](CC(=O)O)NC(=O)c2cc(OCC(=O)N3CCC[C@H]3C(=O)NC3CC3)n(-c3ccccc3)n2)CC1` [Example 56, 4-[(S)-3-Carboxy-2-({5-[2-((S)-2-cyclopropylcarbamoyl-pyrrolidin-1-yl)-2-oxo-ethoxy]-1-phenyl-1H-pyrazole-3-carbonyl}-amino)-propionyl]-piperazine-1-carboxylic acid ethyl ester] as the compound, how does the IC50 read?
**A.** 0.06 µM

**Q.** `CCOC(=O)N1CCN(C(=O)[C@H](CCC(=O)OCC2(CC)COC2)NC(=O)c2cc(OCC(=O)N3CCC[C@H]3C(=O)NC3CCC3)n(-c3ccccc3)n2)CC1` [Example 204, 4-[(S)-2-({5-[2-((S)-2-Cyclobutylcarbamoyl-pyrrolidin-1-yl)-2-oxo-ethoxy]-1-phenyl-1H-pyrazole-3-carbonyl}-amino)-4-(3-ethyl-oxetan-3-ylmethoxycarbonyl)-butyryl]-piperazine-1-carboxylic acid ethyl ester] was tested. Which IC50 did it give?
**A.** 0.72 µM

**Q.** For `CCOC(=O)N1CCN(C(=O)[C@H](CCC(=O)OCCC(C)OC)NC(=O)c2cc(OCC(=O)N3CCC[C@H]3C(=O)NC3CCC3)n(-c3ccccc3)n2)CC1` (stereo partly drawn) [Example 205, 4-[(S)-2-({5-[2-((S)-2-Cyclobutylcarbamoyl-pyrrolidin-1-yl)-2-oxo-ethoxy]-1-phenyl-1H-pyrazole-3-carbonyl}-amino)-4-(3-methoxy-butoxycarbonyl)-butyryl]-piperazine-1-carboxylic acid ethyl ester], which IC50 is on record?
**A.** 0.46 µM

**Q.** Which IC50 does the source give for `CCOCCOC(=O)N1CCN(C(=O)CNC(=O)c2cc(OCC(=O)N3CCC[C@H]3C(=O)NC3CCC3)n(-c3ccccc3)n2)CC1` [Example 257, 4-[2-({5-[2-((S)-2-Cyclobutylcarbamoyl-pyrrolidin-1-yl)-2-oxo-ethoxy]-1-phenyl-1H-pyrazole-3-carbonyl}-amino)-acetyl]-piperazine-1-carboxylic acid 2-ethoxy-ethyl ester] here?
**A.** 0.24 µM

**Q.** With `O=C(NCC(=O)N1CCN(C(=O)[C@@H]2C[C@H]2c2ccccc2)CC1)c1cc(OCC(=O)N2CCC[C@H]2C(=O)NC2CCC2)n(-c2ccccc2)n1` [Example 246, 5-[2-((S)-2-Cyclobutylcarbamoyl-pyrrolidin-1-yl)-2-oxo-ethoxy]-1-phenyl-1H-pyrazole-3-carboxylic acid {2-oxo-2-[4-((1R,2R)-2-phenyl-cyclopropanecarbonyl)-piperazin-1-yl]-ethyl}-amide] as the compound, how does the IC50 read?
**A.** 0.56 µM

**Q.** How did the IC50 turn out when `O=C(NCC(=O)N1CCN(C(=O)OCc2ccccc2)CC1)c1cc(OCC(=O)N2CCC[C@H]2C(=O)NC2CCC2)n(-c2ccccc2)n1` [Example 275, 4-[2-({5-[2-((S)-2-Cyclobutylcarbamoyl-pyrrolidin-1-yl)-2-oxo-ethoxy]-1-phenyl-1H-pyrazole-3-carbonyl}-amino)-acetyl]-piperazine-1-carboxylic acid benzyl ester] was run?
**A.** 0.49 µM

**Q.** `CCOC(=O)N1CCN(C(=O)[C@H](CCC(=O)O)NC(=O)c2cc(OCC(=O)N3CCC[C@H]3C(=O)N3CCC(F)(F)CC3)n(-c3ccccc3)n2)CC1` [Example 19, 4-{(S)-4-Carboxy-2-[(5-{2-[(S)-2-(4,4-difluoro-piperidine-1-carbonyl)-pyrrolidin-1-yl]-2-oxo-ethoxy}-1-phenyl-1H-pyrazole-3-carbonyl)-amino]-butyryl}-piperazine-1-carboxylic acid ethyl ester] was tested. Which IC50 did it give?
**A.** 0.21 µM

**Q.** With `CCOC(=O)N1CCN(C(=O)[C@H](CCC(=O)O)NC(=O)c2cc(O[C@@H](C)C(=O)N3CCC[C@H]3C(=O)NCC3CC3)n(-c3ccccc3)n2)CC1` [Example 68, 4-[(S)-4-Carboxy-2-({5-[(S)-2-((S)-2-cyclopropylmethylcarbamoyl-pyrrolidin-1-yl)-1-methyl-2-oxo-ethoxy]-1-phenyl-1H-pyrazole-3-carbonyl}-amino)-butyryl]-piperazine-1-carboxylic acid ethyl ester] as the compound, how does the IC50 read?
**A.** 0.07 µM

**Q.** Which IC50 does the source give for `O=C(O)CC[C@H](NC(=O)c1cc(OCC(=O)N2CCC[C@H]2C(=O)NC2CCC2)n(-c2ccccc2)n1)C(=O)N1CCN(C(=O)Oc2ccccc2)CC1` [Example 156, 4-[(S)-4-Carboxy-2-({5-[2-((S)-2-cyclobutylcarbamoyl-pyrrolidin-1-yl)-2-oxo-ethoxy]-1-phenyl-1H-pyrazole-3-carbonyl}-amino)-butyryl]-piperazine-1-carboxylic acid phenyl ester] here?
**A.** 1.08 µM

**Q.** `CCCCOC(=O)NC1CCN(C(=O)[C@H](CCC(=O)O)NC(=O)c2cc(OCC(=O)N3CCC[C@H]3C(=O)NC3CCC3)n(-c3ccccc3)n2)C1` (stereo partly drawn) [Example 108, (S)-5-(3-Butoxycarbonylamino-pyrrolidin-1-yl)-4-({5-[2-((S)-2-cyclobutylcarbamoyl-pyrrolidin-1-yl)-2-oxo-ethoxy]-1-phenyl-1H-pyrazole-3-carbonyl}-amino)-5-oxo-pentanoic acid] was tested. Which IC50 did it give?
**A.** 1.88 µM

**Q.** How did the IC50 turn out when `O=C(O)CC[C@H](NC(=O)c1cc(OCC(=O)N2CCC[C@H]2C(=O)NC2CCC2)n(-c2ccccc2)n1)C(=O)N1CCN(C(=O)c2ccccc2)CC1` [Example 104, (S)-5-(4-Benzoyl-piperazin-1-yl)-4-({5-[2-((S)-2-cyclobutylcarbamoyl-pyrrolidin-1-yl)-2-oxo-ethoxy]-1-phenyl-1H-pyrazole-3-carbonyl}-amino)-5-oxo-pentanoic acid] was run?
**A.** 1.23 µM

**Q.** How did the IC50 turn out when `CCOC(=O)N1CCN(C(=O)[C@H](CCC(=O)OCCN2CCOCC2)NC(=O)c2cc(OCC(=O)N3CCC[C@H]3C(=O)NC3CCC3)n(-c3ccccc3)n2)CC1` [Example 201, 4-[(S)-2-({5-[2-((S)-2-Cyclobutylcarbamoyl-pyrrolidin-1-yl)-2-oxo-ethoxy]-1-phenyl-1H-pyrazole-3-carbonyl}-amino)-4-(2-morpholin-4-yl-ethoxycarbonyl)-butyryl]-piperazine-1-carboxylic acid ethyl ester] was run?
**A.** 0.57 µM

**Q.** `CCOC(=O)N1CCN(C(=O)[C@H](CC(C)C)NC(=O)c2cc(OCC(=O)N3CCC[C@H]3C(=O)NC3CCC3)n(-c3ccccc3)n2)CC1` [Example 215, 4-[(S)-2-({5-[2-((S)-2-Cyclobutylcarbamoyl-pyrrolidin-1-yl)-2-oxo-ethoxy]-1-phenyl-1H-pyrazole-3-carbonyl}-amino)-4-methyl-pentanoyl]-piperazine-1-carboxylic acid ethyl ester] was tested. Which IC50 did it give?
**A.** 0.95 µM

**Q.** How did the IC50 turn out when `CCOC(=O)N1CCN(C(=O)[C@H](CCNC(=O)C(F)(F)F)NC(=O)c2cc(OCC(=O)N3CCC[C@H]3C(=O)NC3CCC3)n(-c3ccccc3)n2)CC1` [Example 98, 4-[(S)-2-({5-[2-((S)-2-Cyclobutylcarbamoyl-pyrrolidin-1-yl)-2-oxo-ethoxy]-1-phenyl-1H-pyrazole-3-carbonyl}-amino)-4-(2,2,2-trifluoro-acetylamino)-butyryl]-piperazine-1-carboxylic acid ethyl ester] was run?
**A.** 1.81 µM

**Q.** How did the IC50 turn out when `CCOC(=O)N1CCN(C(=O)[C@H](CCC(=O)O)NC(=O)c2cc(OCC(=O)N3CCC[C@H]3C(=O)N(C)C3CCC3)n(-c3ccccc3)n2)CC1` [Example 22, 4-{(S)-4-Carboxy-2-[(5-{2-[(S)-2-(cyclobutyl-methyl-carbamoyl)-pyrrolidin-1-yl]-2-oxo-ethoxy}-1-phenyl-1H-pyrazole-3-carbonyl)-amino]-butyryl}-piperazine-1-carboxylic acid ethyl ester] was run?
**A.** 0.22 µM
